The text below walks through data of BindingDB's records for doi:10.7270/Q2RR233C (D3R/Abbott, 2020).

Where “and” joins values, the source holds several entries; their conditions need not be identical. Equal values may be shown once.

The assay concerns the target Tyrosine-protein kinase ABL1 (Homo sapiens, UniProt P00519). In words: D3R2026.
Source text: D3R2026

Chain of Tyrosine-protein kinase ABL1 (P00519 whole entry): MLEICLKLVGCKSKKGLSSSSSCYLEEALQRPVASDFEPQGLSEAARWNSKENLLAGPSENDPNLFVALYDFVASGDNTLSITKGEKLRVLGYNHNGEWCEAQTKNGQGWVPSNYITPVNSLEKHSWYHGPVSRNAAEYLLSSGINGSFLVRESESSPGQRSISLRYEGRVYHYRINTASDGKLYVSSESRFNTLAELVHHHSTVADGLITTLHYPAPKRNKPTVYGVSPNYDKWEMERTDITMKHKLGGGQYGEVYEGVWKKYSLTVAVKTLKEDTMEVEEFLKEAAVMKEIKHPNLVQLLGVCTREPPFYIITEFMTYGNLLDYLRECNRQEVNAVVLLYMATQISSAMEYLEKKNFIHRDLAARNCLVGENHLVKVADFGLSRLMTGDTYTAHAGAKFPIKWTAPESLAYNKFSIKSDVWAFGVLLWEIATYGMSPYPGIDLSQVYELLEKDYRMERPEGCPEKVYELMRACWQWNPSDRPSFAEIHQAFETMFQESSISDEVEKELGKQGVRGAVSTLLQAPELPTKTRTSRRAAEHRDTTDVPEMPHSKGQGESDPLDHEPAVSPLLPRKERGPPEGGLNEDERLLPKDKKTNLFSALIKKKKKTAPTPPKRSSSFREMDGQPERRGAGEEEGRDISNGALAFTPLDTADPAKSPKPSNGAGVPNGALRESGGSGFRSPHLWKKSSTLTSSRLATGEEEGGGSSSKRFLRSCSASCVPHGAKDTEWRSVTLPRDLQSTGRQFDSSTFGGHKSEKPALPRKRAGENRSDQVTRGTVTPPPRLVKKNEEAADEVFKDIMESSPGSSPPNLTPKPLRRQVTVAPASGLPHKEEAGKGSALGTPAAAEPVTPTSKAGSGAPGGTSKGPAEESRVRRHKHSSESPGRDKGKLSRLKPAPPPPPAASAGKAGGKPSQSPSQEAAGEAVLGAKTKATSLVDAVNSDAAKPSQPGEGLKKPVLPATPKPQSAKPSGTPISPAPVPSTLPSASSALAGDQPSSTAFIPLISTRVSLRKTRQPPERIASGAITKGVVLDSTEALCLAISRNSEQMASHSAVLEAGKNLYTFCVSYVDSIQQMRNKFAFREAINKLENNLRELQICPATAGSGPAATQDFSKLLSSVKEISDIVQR

`CCOC(=O)N1CCC(n2cnc(-c3ccc(F)cc3)c2-c2ccnc(N)n2)CC1` [4-[5-(2-Amino-pyrimidin-4-yl)-4-(4-fluoro-phenyl)-imidazol-1-yl]-piperidine-1-carboxylic acid ethyl ester]: the dissociation constant (Kd) is 4.8 µM and 10 µM and 2.2 µM and 5.4 µM.
